Results published in US20090061513A1, “Cell sorting and cell cultivation methods” (PicoVitro AB, priority 2007, published 2009).

Test system: doxorubicin resistant sub line RPMI8226Dox40
Test: Single cell seeding and cultivation in microplate with doxorubicin-spiked growth medium (drug resistance screening), resistant cells
Type: cell-based, human
Settings: 6 days of incubation, resistant vs sensitive cells
Protocol: The clean plates and semi-permeable top membranes were autoclaved for 20 min at 121° C. to obtain a sterile cell culture environment. An excess of recommended growth medium was added to the plate, and manually distributed evenly to all wells by an autoclaved hand scraper (VWR) or sterile cell scrapers (Falcon, for one-time use only). Then, automatic single cell seeding into predefined wells of the microplate was carried out using the FACS. A motorized x/y-stage combined with the software CloneCyt Plus (BD Biosciences) was used to control the exact position of every cell sorted in the plate. Selection of the cells to be seeded was performed based on their individual FSC/SSC (forward scatter/side scatter) properties (i.e. size and granularity). The cells were analyzed at a rate of approximately 100 cells/s. A representative set of cells was sought, meaning that all viable cells in the sample were selected for seeding into the plate. The cells were sorted directly from recommended growth medium in concentrations ranging from 10^5-10^6 cells/ml. FACS Clean solution (BD Biosciences) was let through the fluidics of the FACS prior to experiments to obtain sterility. The x/y-stage and the surrounding of the fluidics outlet was cleaned with 70% EtOH. During analysis, sterile 0.25×PBS was used as sheath buffer. […]

Structure (SMILES): COc1cccc2c1C(=O)c1c(O)c3c(c(O)c1C2=O)C[C@@](O)(C(=O)CO)C[C@@H]3O[C@H]1C[C@H](N)[C@H](O)[C@H](C)O1 [Doxorubicin, doxorubicin]
- Proliferation at higher drug concentrations: only resistant cells can proliferate at higher drug concentrations
